Data on 7 compounds can be found in patent US7897779B2, “Ionic UV-A sunscreens and compositions containing them” (DSM IP Assets B.V., priority 2004, dated 2011).

Where only a bound is given, the exact number is not on record here.

As a reminder, the solubility is how much of the substance goes into solution per volume.

A short description of data set [1]: UV absorption spectrum (absorption maximum and extinction E). The class given is physicochemical. On the set-up: extinction E: unit not given beside the values. Particulars: for extinction E: at absorption maximum. The source says:
This salt was recrystallized from DMF.
The reaction mixture was concentrated at the rotavap, followed by HV drying. The residue is washed with cyclohexane and then with ethylacetate followed by recrystallization from ethanol.

The nature of data set [2]: Photostability according to Berset et al., Internat. J. Cosmetic Science 18: 167-177 (1996). The class given is physicochemical. The following applies: solution in water/glycerol=7:3 as liquid phase. The method, then: 209-210° C. […] One equivalent of aq. […] M.p. […] .
The next data set can be described thus: physchem. The following applies: water.
For data set [3] the following is noted: prior-art water-soluble UV-A sunscreen (EP-A 669 323, DE 33 24 735); cited from earlier work.

Regarding `CC1=CC(=C(C#N)C#N)C=C(C)N1CCOCCOP(=O)([O-])O.[Na+]` [Example 1, 4-dicyanomethylene-2,6-dimethyl-1,4-dihydropyridine-N-(ethyloxy-ethyloxyphosphate estermonosodium salt)], in data set [1] (UV (water)), the UV absorption maximum is 350 nm and the “extinction E” value came to 979. Moreover, the photostability result in data set [2] was “photostable”. The compound further displayed a solubility in “physchem” of 168 mg/mL.

For the compound `CC1=CC(=C(C#N)C#N)C=C(C)N1CCOS(=O)(=O)[O-].[Na+]` [Example 2, 4-dicyanomethylene-2,6-dimethyl-1,4-dihydropyridine-N-(ethyloxysulfate estermonosodium salt)], in data set [1] (UV (water)), the UV absorption maximum is given as 352 nm and the “extinction E” value was 1261. Besides, in data set [2], the photostability entry is listed as “photostable”.

Take `CC1=CC(=C(C#N)C#N)C=C(C)N1c1cccc(OCCCS(=O)(=O)[O-])c1.[Na+]` [Example 5, 3-[3-(4-dicyanomethylene-2,6-dimethyl-4H-pyridin-1-yl)-phenoxy]propane-1-sulfonic acid]: in data set [1] (UV (water)), the UV absorption maximum came to 352 nm and the “extinction E” value came to 1150.

As for `O=S(=O)([O-])c1cc(S(=O)(=O)O)cc2[nH]c(-c3ccc(-c4nc5c(S(=O)(=O)[O-])cc(S(=O)(=O)O)cc5[nH]4)cc3)nc12.[Na+].[Na+]` [disodium phenyldibenzimidazole tetrasulfonate], in data set [3], the absorption maximum is 335 nm and the “extinction value E” value was 745.

For the compound `CC1=CC(=C(C#N)C#N)C=C(C)N1CCC[N+](C)(C)CCOCCOCCO.[I-]` [Example 3], in data set [1] (UV (ethanol)), the UV absorption maximum turned out to be 362 nm.

`CC1=CC(=C(C#N)C#N)C=C(C)N1CCOCC[n+]1ccccc1` [Example 4, 1-{2-[2-(4-dicyanomethylene-2,6-dimethyl-4H-pyridin-1-yl)-ethoxy]-ethyl}-pyridinium chloride]: in data set [1] (UV (water)), the UV absorption maximum is 352 nm and the “extinction E” value is on record as 1149. In the data set “physchem”, this compound had a solubility above 200 mg/mL.

Regarding `CC1(C)C2CCC1(CS(=O)(=O)O)C(=O)C2=Cc1ccc(C=C2C(=O)C3(CS(=O)(=O)O)CCC2C3(C)C)cc1` [terephthalylidene dicamphorsulfonic acid], in data set [3], the absorption maximum is listed as 345 nm and the “extinction value E” value is reported as 866.
